Test results taken from US20260078103A1, “ISOQUINOLONES AS PI3K INHIBITORS” (OnKure, Inc., priority 2022, published 2026).
Read-outs that look alike come from different tables or passages of the source.

Assays:
Format in all cases: cell-based
[1] = test system: phosphorylation of AKT (pAKT) in T47D cells expressing mutant PI3Ka (H1047R); test: In vitro cell pAKT (Ser473) HTRF, T47D cells; details: cellular pAKT, T47D cells, mutant PI3Ka (H1047R), 6 hours, read-out: Avg T-47D IC50
Summary of the method: (§1)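 T47D cells (RPMI, 10% FBS, 0.2 units/mL insulin) or SKBR3 cells (McCoy's 5a, 10% FBS) were seeded onto 10-point compound dilutions and incubated 6 h at 37 °C. After lysis, pAKT was detected overnight by HTRF (Eu cryptate/d2). IC50 was fitted from % inhibition relative to 0.1% DMSO and 10 uM alpelisib controls.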

[2] = test system: T47D cells expressing mutant PI3Ka (H1047R); test: In vitro cell proliferation, T47D cells (CellTiter-Glo); details: inhibition of proliferation, read-out: Avg T-47D EC50
Summary of the method: (§2)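 Proliferation was read by CellTiter-Glo luminescence after 72 h of exposure to 10-point compound dilutions at 37 °C and 5% CO2. T47D (RPMI, 10% FBS, insulin 0.2 units/mL) and SKBR3 (McCoys 5a, 10% FBS) cells were seeded at 1,500 cells/well. EC50 was fitted from inhibition relative to DMSO and 10 uM Alpelisib.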

[3] = test system: SKBR3 cells express WT PI3Ka; test: In vitro cell proliferation, SKBR3 cells (CellTiter-Glo); details: inhibition of proliferation
Summary of the method: as §2

[4] = test system: phosphorylation of AKT (pAKT) in SKBR3 cells express WT PI3Ka; test: In vitro cell pAKT (Ser473) HTRF, SKBR3 cells; details: cellular pAKT
Summary of the method: as §1

| Compound | IC50 ([1]; Homo sapiens, T47D, 6 h) [nM] | EC50 ([2]; Homo sapiens, T47D, 72 h) [nM] | EC50 ([3]; Homo sapiens, SK-BR-3, 72 h) [nM] | IC50 ([4]; Homo sapiens, SK-BR-3, 6 h) [nM] | IC50 [1] [nM] | EC50 ([2]; 72 hours) [nM] | EC50 ([3]; 72 hours) [nM] | IC50 ([4]; 6 hours) [nM] |
| --- | --- | --- | --- | --- | --- | --- | --- | --- |
| Cc1cc([C@@H](C)Nc2ccccc2C(=O)O)c2cc(C3C[C@H]3C)n(C)c(=O)c2c1 (stereo partly drawn) [Example 305] | 1 to 500 | 1 to 500 | > 15000 | > 15000 |  |  |  |  |
| CON1CCN(c2cc3c([C@@H](C)Nc4ccccc4C(=O)O)cc(C)cc3c(=O)n2C)CC1 [Example 158] | 1 to 500 | 1 to 500 | > 15000 | > 15000 |  |  |  |  |
| COc1cccc(C#Cc2cc3c(C(C)Nc4ccccc4C(=O)O)cc(C)cc3c(=O)n2C)c1 (single isomer, unassigned) [Example 126] |  |  |  |  | 1 to 500 | 1 to 500 | > 15000 | > 15000 |
| Cc1cc(C(C)Nc2ccccc2C(=O)O)c2cc(N3CCN(c4ccc(C)nc4)CC3)n(C)c(=O)c2c1 (single isomer, unassigned) [Example 146] |  |  |  |  | > 15000 | 2000 to 15000 | > 15000 | > 15000 |
| Cc1cc(C(C)Nc2ccccc2C(=O)O)c2cc(N3CCC4(CCN(CC(F)(F)F)CC4)CC3)n(C)c(=O)c2c1 (stereo not drawn) [Example 91] |  |  |  |  | 1 to 500 | 1 to 500 | 2000 to 15000 | > 15000 |
| Cc1cc([C@@H](C)Nc2ccccc2C(=O)O)c2cc(-c3ccncc3)n(C)c(=O)c2c1 [Example 241] | 1 to 500 | 1 to 500 | > 15000 | > 15000 |  |  |  |  |
| Cc1cc(C(C)Nc2ccccc2C(=O)O)c2cc(N3CCc4ncncc4C3)n(C)c(=O)c2c1 (stereo not drawn) [Example 86] | 500 to 2000 | 2000 to 15000 | > 15000 | > 15000 |  |  |  |  |
| Cc1cc([C@@H](C)Nc2ccccc2C(=O)O)c2cc(N3CCN(C(=O)OC4CC4)CC3)n(C)c(=O)c2c1 [Example 203] | 1 to 500 | 1 to 500 | > 15000 | > 15000 |  |  |  |  |
| Cc1ccc(-c2ncc(-c3cc4c([C@@H](C)Nc5ccccc5C(=O)O)cc(F)cc4c(=O)n3C)cc2F)c(C)n1 [Example 472] | 1 to 500 | 1 to 500 | 2000 to 15000 | 2000 to 15000 |  |  |  |  |
| C[C@@H](Nc1ccccc1C(=O)O)c1cc(F)cc2c(=O)n(C)c(C34CC(c5cnn(C(F)F)c5)(C3)C4)c(F)c12 [Example 580] | 1 to 500 | 1 to 500 | 2000 to 15000 | 2000 to 15000 |  |  |  |  |
| Cc1cc(C(C)Nc2ccccc2C(=O)O)c2cc(N3CCC4(CCOCC4)CC3)n(C)c(=O)c2c1 (single isomer, unassigned) [Example 167] |  |  |  |  | 1 to 500 | 1 to 500 | 2000 to 15000 | 2000 to 15000 |
| Cc1cc([C@@H](C)Nc2ccccc2C(=O)O)c2c(F)c(C3CC3)n(C)c(=O)c2c1 [Example 529] | 1 to 500 | 1 to 500 | > 15000 | > 15000 |  |  |  |  |
| C[C@@H](Nc1ccccc1C(=O)O)c1cc(F)cc2c(=O)n(C)c(-c3cnc(-c4ncc(Cl)cc4F)c(F)c3)cc12 [Example 505] |  |  |  |  | 1 to 500 | 1 to 500 | > 15000 | > 15000 |
| Cc1cc(C(C)Nc2ccccc2C(=O)O)c2cc(N3CCC4(CCCC4)CC3)n(C)c(=O)c2c1 (stereo not drawn) [Example 62] | 500 to 2000 | 500 to 2000 | > 15000 | > 15000 |  |  |  |  |
| Cc1ncc(-c2ncc(-c3cc4c([C@@H](C)Nc5ccccc5C(=O)O)cc(F)cc4c(=O)n3C)cc2F)s1 [Example 519] |  |  |  |  | 1 to 500 | 1 to 500 | > 15000 | > 15000 |
| Cc1ccc(N[C@H](C)c2cc(F)cc3c(=O)n(C)c(C4CC4C4CC4)cc23)c(C(=O)O)n1 (stereo in doubt) [Example 45, 3-(((R)-1-(3-(trans-[1,1′-bi(cyclopropan)]-2-yl)-7-fluoro-2-methyl-1-oxo-1,2-dihydroisoquinolin-5-yl)ethyl)amino)-6-methylpicolinic acid] |  |  |  |  | 500 to 2000 | 2000 to 15000 | > 15000 | > 15000 |
| Cc1cc([C@@H](C)Nc2ccc(Cl)nc2C(=O)O)c2cc(N3CCN(Cc4ccc(F)cc4)CC3)n(C)c(=O)c2c1 [Example 25, (R)-6-chloro-3-((1-(3-(4-(4-fluorobenzyl)piperazin-1-yl)-2,7-dimethyl-1-oxo-1,2-dihydroisoquinolin-5-yl)ethyl)amino)picolinic acid] | 1 to 500 | 1 to 500 | 2000 to 15000 | 2000 to 15000 |  |  |  |  |
| Cc1cc([C@@H](C)Nc2ccccc2C(=O)O)c2cc(OC3CC3)n(C)c(=O)c2c1 [Example 339] | 1 to 500 | 500 to 2000 | > 15000 | > 15000 |  |  |  |  |
| Cc1cc(C(C)Nc2ccccc2C(=O)O)c2cc(N3CCN(c4ccc(C)nc4)CC3)n(C)c(=O)c2c1 (single isomer, unassigned) [Example 145] | 1 to 500 | 1 to 500 | 2000 to 15000 | 2000 to 15000 |  |  |  |  |

The next lines start with the values.

| IC50 ([1]; Homo sapiens, T47D, 6 h) [nM] | EC50 ([2]; Homo sapiens, T47D, 72 h) [nM] | EC50 ([3]; Homo sapiens, SK-BR-3, 72 h) [nM] | IC50 ([4]; Homo sapiens, SK-BR-3, 6 h) [nM] | IC50 [1] [nM] | EC50 ([2]; 72 hours) [nM] | EC50 ([3]; 72 hours) [nM] | IC50 ([4]; 6 hours) [nM] | Compound |
| --- | --- | --- | --- | --- | --- | --- | --- | --- |
| 1 to 500 | 500 to 2000 | > 15000 | > 15000 |  |  |  |  | Cc1cc([C@@H](C)Nc2ccccc2C(=O)O)c2cc(N3C[C@H]4CN(CC(F)(F)F)C[C@H]4C3)n(C)c(=O)c2c1 [Example 73] |
|  |  | > 15000 | > 15000 | > 15000 | > 15000 |  |  | Cc1cc(C(C)Nc2ccccc2C(=O)O)c2cc(N3CCN4C(=O)OC[C@H]4C3)n(C)c(=O)c2c1 (single isomer, unassigned) [Example 141] |
|  |  |  |  | 1 to 500 | 500 to 2000 | > 15000 | > 15000 | Cc1cc(C(C)Nc2ccccc2C(=O)O)c2cc(N3CC(c4ccccc4)C3)n(C)c(=O)c2c1 (single isomer, unassigned) [Example 77] |
|  |  |  |  | 1 to 500 | 1 to 500 | > 15000 | > 15000 | C[C@@H](Nc1ccccc1C(=O)O)c1cc(F)cc2c(=O)n(C)c(C3C[C@@H]3CF)cc12 (single isomer, unassigned) [Example 494] |
| 1 to 500 | 1 to 500 | > 15000 | > 15000 |  |  |  |  | Cc1cc(C(C)Nc2ccccc2C(=O)O)c2cc(N3CCN4CC(F)(F)C[C@@H]4C3)n(C)c(=O)c2c1 (stereo partly drawn) [Example 140] |
| 1 to 500 | 1 to 500 | 2000 to 15000 | 2000 to 15000 |  |  |  |  | Cc1cc(N2CCN(c3cc4c([C@@H](C)Nc5ccccc5C(=O)O)cc(F)cc4c(=O)n3C)CC2)on1 [Example 512] |
| 1 to 500 | 500 to 2000 | > 15000 | > 15000 |  |  |  |  | Cc1cc([C@@H](C)Nc2ccccc2C(=O)O)c2cc(N3CC(CC(F)(F)F)C3)n(C)c(=O)c2c1 [Example 405] |
| 1 to 500 | 1 to 500 | > 15000 | > 15000 |  |  |  |  | C[C@@H](Nc1ccccc1C(=O)O)c1cc(F)cc2c(=O)n(C)c(N3CCN(CC(F)(F)F)C(C)(C)C3)cc12 [Example 510] |
| 1 to 500 | 1 to 500 | > 15000 | > 15000 |  |  |  |  | C[C@@H](Nc1ccccc1C(=O)O)c1cc(F)cc2c(=O)n(C)c(C3C[C@@H]3C(F)F)cc12 (single isomer, unassigned) [Example 488] |
|  |  |  |  | 2000 to 15000 | 2000 to 15000 | > 15000 | > 15000 | CC(Nc1ccccc1C(=O)O)c1cc(F)cc2c(=O)n(C)c(N3CCN(CC(F)(F)F)CC3)c(F)c12 (single isomer, unassigned) [Example 573] |
| 1 to 500 | 500 to 2000 | > 15000 | > 15000 |  |  |  |  | Cc1cc([C@@H](C)Nc2ccccc2C(=O)O)c2cc(N3CC[C@@]4(CCCN(CC(F)(F)F)C4)C3)n(C)c(=O)c2c1 [Example 98] |
|  |  |  |  | 2000 to 15000 | 2000 to 15000 | > 15000 | > 15000 | C[C@@H](Nc1cccc(F)c1C(=O)O)c1cc(F)cc2c(=O)n(C)c(N3CC(C(F)(F)F)C3)cc12 [Example 413] |
| 1 to 500 | 1 to 500 | > 15000 | > 15000 |  |  |  |  | Cc1cc([C@@H](C)Nc2ccccc2C(=O)O)c2cc(N3CCOCC3)n(C)c(=O)c2c1 [Example 249] |
| 1 to 500 | 1 to 500 | > 15000 | > 15000 |  |  |  |  | Cc1cc([C@@H](C)Nc2ccccc2C(=O)O)c2cc(C3CCN(CC(F)(F)F)CC3)n(C)c(=O)c2c1 [Example 296] |
| 2000 to 15000 | 2000 to 15000 | > 15000 | > 15000 |  |  |  |  | Cc1cc([C@@H](C)Nc2cccc(C)c2C(=O)O)c2cc(N3CCN(CC(F)(F)F)CC3)n(C)c(=O)c2c1 [Example 297] |
| 1 to 500 | 500 to 2000 | > 15000 | > 15000 |  |  |  |  | Cc1cc([C@@H](C)Nc2ccccc2C(=O)O)c2cc(N3CC(c4ccccn4)C3)n(C)c(=O)c2c1 [Example 152] |
|  |  |  |  | > 15000 | > 15000 | > 15000 | > 15000 | Cc1cc(C(C)Nc2ccccc2C(=O)O)c2cc(N3CCN4C(=O)CCC4C3)n(C)c(=O)c2c1 (single isomer, unassigned) [Example 123] |
